The values below are quoted from earlier work in US20140342380A1, “VERIFYING THE SOURCE OF BIOLOGICAL SAMPLES; METHOD, COMPOSITION AND KIT THEREFOR” (priority 2011, published 2014).

The conditions of data set [1]: cited from earlier work.
For data set [2] the following is noted: cited from earlier work. The source holds these as a separate data set.

Like-named read-outs stand apart in the source and are kept apart here.

As for `CCCCCCCCCCCCOC(=O)CCSCCC(=O)OCCCCCCCCCCCC` [Dilauryl thiodipropionate (DLTDP), Dilauryl thiodipropionate], the “metabolite(s) / form excreted in urine after ingestion” value in data set [1] (Table 1 note, species not stated) is on record as “Dilauryl thiodipropionate (DLTDP), Ingested DLTDP was excreted in the urine as thiodipropionic”.
On to `O=C(OC[C@H]1O[C@@H](OC(=O)c2cc(O)c(O)c(OC(=O)c3cc(O)c(O)c(O)c3)c2)[C@H](OC(=O)c2cc(O)c(O)c(OC(=O)c3cc(O)c(O)c(O)c3)c2)[C@@H](OC(=O)c2cc(O)c(O)c(OC(=O)c3cc(O)c(O)c(O)c3)c2)[C@@H]1OC(=O)c1cc(O)c(O)c(OC(=O)c2cc(O)c(O)c(O)c2)c1)c1cc(O)c(O)c(OC(=O)c2cc(O)c(O)c(O)c2)c1` [Tannic acid], for which the “metabolite(s) found after ingestion” value in data set [2] (Table 1 note, cited study in rat) was “Tannic acid: metabolized to 4-0-Methylgallic acid (4-OMGA), pyrogallol (PY), and resorcinol”.
For the compound `C=CCc1ccc(O)c(OC)c1` [eugenol], the “metabolite(s) found after ingestion” value in data set [2] (rat, in vivo) is “eugenol clove leaf oil metabolized to Glucuronide and sulfate conjugates were identified in urine”.
On to inulin, for which the “renal handling / detection in urine after consumption” value in data set [1] (general statement) was “readily passively filtered by the kidney, e.g., detected in the urine after consumption”.
